Test results taken from publication PMC4978154, “Phase I metabolites of mephedrone display biological activity as substrates at monoamine transporters” (British Journal of Pharmacology, 2016).

Target: T1, hSERT (Homo sapiens, UniProt P31645)
T1 construct: yellow fluorescent protein (YFP); expressed in transfected cells
Experiment: Transporter release (superfusion) assay in HEK293 cells expressing hSERT
Assay type: cell-based
Details: test drug 10 μM, monensin 10 μM; post hoc Bonferroni
Procedure: The generation of HEK293 cells stably expressing the human isoforms of DAT (hDAT) and NET (hNET) was carried out as described previously (Scholze et al., 2002). For SERT, the human isoform (hSERT) was cloned in frame with yellow fluorescent protein (Schmid et al., 2001). The generation of a stable cell line was performed as described by Hilber and colleagues (Hilber et al., 2005). HEK293 cells were maintained in humidified atmosphere (5% CO2, 37°C) in DMEM, supplemented with 10% heat‐inactivated FBS and penicillin (100 u 100 mL^−1) and streptomycin (100 μg 100 mL^−1). Selection pressure was maintained by adding geneticin (50 μg·mL^−1) to the cell culture media.
Superfusion experiments were performed as described previously (Scholze et al., 2002). […] Finally, the cells were lysed in 1% SDS to determine the total radioactivity. Radioactivity per fraction was assessed by a liquid scintillation counter and expressed as fractional release, that is, the percentage of released ^3H in relation to total ^3H present at the beginning of the fraction (Sitte et al., 2000). For analysis, release was expressed as AUC.
Calculations were performed using Microsoft Excel® 2010 (Microsoft Corporation, Redmond, WA, USA) and GRAPHPAD PRISM 5.0. […] IC50 values for uptake inhibition and EC50 values for release were determined by nonlinear regression fits. […]

T1 sequence (P31645 whole entry): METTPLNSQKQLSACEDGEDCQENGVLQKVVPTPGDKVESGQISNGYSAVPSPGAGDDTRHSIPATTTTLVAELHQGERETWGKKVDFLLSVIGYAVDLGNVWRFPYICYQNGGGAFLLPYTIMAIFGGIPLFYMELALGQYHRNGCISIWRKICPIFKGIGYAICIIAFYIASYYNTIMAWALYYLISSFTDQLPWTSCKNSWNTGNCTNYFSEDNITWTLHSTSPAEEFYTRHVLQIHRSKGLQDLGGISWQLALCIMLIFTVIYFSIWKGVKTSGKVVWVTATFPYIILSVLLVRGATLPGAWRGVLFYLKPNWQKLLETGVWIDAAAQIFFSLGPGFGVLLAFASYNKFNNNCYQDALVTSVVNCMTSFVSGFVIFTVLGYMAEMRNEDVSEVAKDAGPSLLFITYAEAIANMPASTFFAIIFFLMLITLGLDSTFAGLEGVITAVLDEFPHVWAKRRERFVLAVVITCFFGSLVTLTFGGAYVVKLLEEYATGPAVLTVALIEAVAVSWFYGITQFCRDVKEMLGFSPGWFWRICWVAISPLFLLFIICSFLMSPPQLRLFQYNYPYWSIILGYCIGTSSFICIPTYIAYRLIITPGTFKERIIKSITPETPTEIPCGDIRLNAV

CNC(C)C(=O)c1ccc(C)cc1.Cl (stereo not shown) [Mephedrone, 2‐Methylamino‐1‐(p‐tolyl)propan‐1‐one hydrochloride]
enhancement by monensin of drug-evoked [3H]-5-HT release at hSERT (AUC): significant
